Source: patent US20190025285A1, “METHODS OF DETERMINING RELATIVE POTENCY OF GLATIRAMER ACETATE AND USE THEREOF IN PREPARING A BATCH OF GLATIRAMER ACETATE AS ACCEPTABLE FOR PHARMACEUTICAL USE” (InSight Biopharmaceutical Ltd., priority 2015, published 2019)

Columns and labels:
multiple sclerosis = details: cited from earlier work
[1] = test system: Experimental Autoimmune Encephalomyelitis; details: various animal species; cited from earlier work
[2] = test system: LNCs extracted from mice immunized with Poly-YAK (YB106); test: Ex-vivo potency assay: immunization with Poly-YAK (YB106), in-vitro stimulation of LNCs, IL-2 ELISA; type: cell-based, mouse; details: specificity samples as in-vitro stimulators
Source text: The present inventors developed an ex-vivo biological potency assay to determine the relative potency of GA based on effecting the first stimulus by immunizing mice in-vivo with Poly-YAK (also referred to as activation), and the second stimulus by in-vitro stimulation (also referred to as stimulation) with GA. The assay is composed of 6 major steps depicted in FIG. 1.
Briefly, mice are immunized with a pre-determined amount of Poly-YAK (YB106), mixed 1:1 with CFA (step 1). Eight to ten days later, the mice are sacrificed and draining lymph nodes are harvested. Lymph node cells (LNCs) are extracted from the lymph nodes and counted (step 2). […] The Level of IL-2 secretion from the cells into the culture media is determined by a commercial IL-2 ELISA (step 4).
In order to determine the relative potency of a tested batch, IL-2 secretion by the LNCs incubated with the tested batch samples is compared to the IL-2 secretion by the LNCs incubated with RS samples (step 5). Parallelism of the RS and tested batch curves and potency of the tested batch are determined accordingly (step 6). […]
Lymph node cells (LNCs) extraction—The primary culture of LNCs was prepared 8 to 10 days following immunization. […] The cells were then collected in 10-20 ml RPMI or AIM-V complete medium and counted by hemocytometer using Erythrosine B (Sigma, cat no. E9259). […]

Row | Substance | total number of enhancing lesions as measured by MRI (multiple sclerosis; MS patients, 20 mg/day subcutaneous dose) | frequency of relapses (multiple sclerosis; relapsing-remitting MS clinical trials) | suppression of EAE [1] | IL-2 secretion response pattern in comparison to RS [2]
1 | L-glutamic acid polymer with L-alanine, L-lysine and L-tyrosine, acetate (salt) [GA] | reduce the total number of enhancing lesions | reduce the frequency of relapses | suppress Experimental Autoimmune Encephalomyelitis | 
2 | MBP peptide (87-99): Myelin Basic Protein peptide 87-99 (BACHEM H-1964), negative control (SRPHLIRLFSRDA; UniProt P02686 87-99, looked up, fragment) |  |  |  | did not induce IL-2 secretion response
